In patent US10752612B2, “PLK4 inhibitors” (LUDWIG INSTITUTE FOR CANCER RESEARCH LTD, priority 2015, dated 2020):

The molecules below were run against T1, human Plk4 kinase domain (aa 2-275) (Homo sapiens, UniProt O00444) (assay: Plk4 kinase assay (ADP-Glo)). Conditions: Table 1.
T1 construct: purified 6×His-tagged human Plk4 kinase domain (aa 2-275); 6xHis; made in house; host or cells: E. coli
T1 sequence (O00444 2-275): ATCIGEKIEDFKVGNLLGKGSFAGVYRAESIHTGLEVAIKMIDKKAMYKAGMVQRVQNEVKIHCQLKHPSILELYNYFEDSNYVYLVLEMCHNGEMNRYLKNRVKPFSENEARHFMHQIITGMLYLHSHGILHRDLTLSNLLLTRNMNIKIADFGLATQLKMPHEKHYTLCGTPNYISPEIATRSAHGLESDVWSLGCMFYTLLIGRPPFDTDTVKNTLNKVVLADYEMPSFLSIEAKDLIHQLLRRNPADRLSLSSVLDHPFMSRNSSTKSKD
Type: biochemical
Summary of the method: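 Enzyme at 2.5-10 nM final, pH 8.0, reacted 4-16 hours at 25° C; ADP generation read by ADP-Glo luminescence. Ki derived from IC50 by Cheng-Prusoff or, for tight binders, Copeland formalism.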

| SMILES | IC50 |
| --- | --- |
| CCOc1c(Nc2cc(C)[nH]n2)nc(Sc2ccc(NC(C)=O)cc2)nc1N1CCN(CCN(C)C)CC1 | 0.1 to 1 µM |
| Cc1cc(Nc2nc(Sc3ccc(N)cc3)nc(N3CCCCC3)c2C)n[nH]1 | < 1 µM |
| COc1c(Nc2cc(C)[nH]n2)nc(Sc2ccc(NC(=O)C3CC3)cc2)nc1N1CCN(C(=O)CCN(C)C)CC1 | < 1 µM |
| COc1c(Nc2cc(C)[nH]n2)nc(Sc2ccc(NC(=O)C3CC3)cc2)nc1N1CCN(c2ccccc2)CC1 | 0.1 to 1 µM |
| COc1c(Nc2cc(C)[nH]n2)nc(Sc2ccc(S(=O)(=O)C(C)(C)c3c(F)c(F)cc(F)c3F)cc2F)nc1N1CCC(OC)CC1 | < 1 µM |
| COc1c(Nc2cc(C)[nH]n2)nc(Sc2ccc(S(=O)(=O)Cc3cc([N+](=O)[O-])ccc3F)cc2)nc1N1CCN(CCN(C)C)CC1 | < 1 µM |
| COc1c(Nc2cc(C)[nH]n2)nc(Sc2ccc(NC(C)=O)cc2)nc1N1CC=C(F)CC1 | < 1 µM |
| COCCN(C)c1nc(Sc2ccc(NC(=O)C3CCCC3)cc2)nc(Nc2cc(C)[nH]n2)c1OC | 0.1 to 1 µM |
| CSc1nc(Nc2cc(C)[nH]n2)c(C)c(N2CCC(O)CC2)n1 | < 1 µM |
| CCS(=O)(=O)c1ccc(Sc2nc(Nc3cc(C)[nH]n3)c(OC)c(N3CCN(CCN(C)C)CC3)n2)c(Cl)c1 | < 1 µM |
| Cc1cc(Cc2nc(Sc3ccc(NC(=O)C4CCCC4)cc3)nc(N3CCN(CCN(C)C)CC3)c2C)n[nH]1 | < 1 µM |
| COCCN1CCN(c2nc(Sc3ccc(NC(=O)C4CC4)cc3)nc(Nc3cc(C)[nH]n3)c2C)CC1 | < 1 µM |
| COc1c(Nc2cc(C)[nH]n2)nc(Sc2ccc(NC(C)=O)cc2)nc1N1CCN(CCN(C)OC)CC1 | < 1 µM |
| CCN(CC)c1nc(Sc2ccc(NC(C)=O)cc2)nc(Nc2cc(C)[nH]n2)c1C | < 1 µM |
| COc1c(Nc2cc(C)[nH]n2)nc(Sc2ccc(S(=O)(=O)C(F)c3cccc([N+](=O)[O-])c3F)cc2F)nc1N1CCOC[C@@H]1CO (some centres unmarked) | < 1 µM |
| COc1c(Nc2cc(C)[nH]n2)nc(Sc2ccc(S(=O)(=O)C(C)(C)c3cccc(Cl)c3F)cc2F)nc1N1CCN(CCN(C)C)CC1 | < 1 µM |

| SMILES | IC50 |
| --- | --- |
| CC(=O)Nc1ccc(Sc2nc(Nc3cc(C)[nH]n3)c(C)c(N3CCCCC3C)n2)cc1 (centres unmarked) | < 1 µM |
| COc1c(Nc2cc(C)[nH]n2)nc(Sc2ccc(S(=O)(=O)C(F)(F)F)cc2)nc1N1CCN(CCN(C)C)CC1 | < 1 µM |
| COc1c(Nc2cc(C)[nH]n2)nc(Sc2ccc(S(=O)(=O)Cc3c(F)c(F)cc(Cl)c3F)cc2F)nc1N1CCC(CCN(C)C)CC1 | < 1 µM |
| CCOc1c(Nc2cc(C)[nH]n2)nc(Sc2ccc(NC(=O)C3CC3)cc2)nc1N1CCN(C(=O)CN(C)C)CC1 | 0.1 to 1 µM |
| COCCNc1nc(Sc2ccc(NC(=O)C3CC3)cc2)nc(Nc2cc(C)[nH]n2)c1OC | < 1 µM |
| CCOc1c(Nc2cc(C)[nH]n2)nc(Sc2ccc(NC(=O)C3CCCC3)cc2)nc1N1CCN(C(=O)CCN(C)C)CC1 | > 1 µM |
| COc1c(Nc2cc(C)[nH]n2)nc(Sc2ccc(NC(C)=O)cc2)nc1N1CCN(CCN)CC1 | < 1 µM |
| COc1c(Nc2cc(C)[nH]n2)nc(SC)nc1N1CCN(CCN(C)C)CC1 | 0.1 to 1 µM |
| Cc1cc(Nc2nc(Sc3ccc(NC(=O)C4CCCC4)cc3)nc(N3CCCCC3)c2C)n[nH]1 | < 1 µM |
| COc1c(Nc2cc(C)[nH]n2)nc(Sc2ccc(NC(=O)C3CC3)cc2)nc1NC1CCN(C)CC1 | 0.1 to 1 µM |
| COc1c(Nc2cc(C)[nH]n2)nc(Sc2ccc(S(=O)(=O)Cc3ccccc3)cc2)nc1N1CCN(Cc2ccncc2)CC1 | < 1 µM |
| COc1c(Nc2cc(C)[nH]n2)nc(Sc2ccc(NC(C)=O)cc2)nc1N1CCN(CCNC(C)=O)CC1 | < 1 µM |
| COc1c(Nc2cc(C)[nH]n2)nc(Sc2ccc(S(=O)(=O)Cc3cccc([N+](=O)[O-])c3)cc2)nc1N1CCO[C@H](C)C1 | < 1 µM |
| CCN(CC)c1nc(Sc2ccc(NC(=O)C3CC3)cc2)nc(Nc2cc(C)[nH]n2)c1C | < 1 µM |
| COc1c(Nc2cc(C)[nH]n2)nc(Sc2ccc(S(=O)(=O)Cc3cccc([N+](=O)[O-])c3)cc2F)nc1N1CCOCC1 | < 1 µM |
| COc1c(Nc2cc(C)[nH]n2)nc(Sc2ccc(NC(C)=O)cc2)nc1N1CCN(CCN2C3CCCC2CC3)CC1 | < 1 µM |
